Columns and labels:
Conditions in all cases: incubation time: 72 h
BT-474 [1] = test: normalised response (% of control), CellTox Green; higher = less cell death (100 = DMSO, 0 = benzethonium chloride kill control)
Method in brief: (§1)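 A 20 µl suspension of breast cancer cells was seeded into each well of 384-well plates containing compound at 5 concentrations in 10-fold steps over a compound-specific 10,000-fold range. After 72 h incubation, CellTox Green fluorescence (485/520 nm) was read first, and CellTiter-Glo luminescence was read after 10 min at room temperature. Each plate was normalised against 0.1 % DMSO (100) and a positive kill control (0), and each value is the normalised signal at one concentration.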

BT-549 [2] = test: as above
Method in brief: as §1

CAL-120 [3] = test: as above
Method in brief: as §1

CAL-148 [4] = test: as above
Method in brief: as §1

CAL-51 [5] = test: as above
Method in brief: as §1

CAL-85-1 [6] = test: as above
Method in brief: as §1

DU-4475 [7] = test: as above
Method in brief: as §1

HCC1143 [8] = test: as above
Method in brief: as §1

HCC1599 [9] = test: as above
Method in brief: as §1

HCC1937 [10] = test: as above
Method in brief: as §1

Hs578T [11] = test: as above
Method in brief: as §1

MCF-10A [12] = test: as above
Method in brief: as §1

MDA-MB-231 [13] = test: as above
Method in brief: as §1

MDA-MB-436 [14] = test: as above
Method in brief: as §1

MDA-MB-453 [15] = test: as above
Method in brief: as §1

MDA-MB-468 [16] = test: as above
Method in brief: as §1

BT-474 [17] = test: normalised response (% of control), CellTiter-Glo; higher = more viable cells (100 = DMSO, 0 = benzethonium chloride kill control)
Method in brief: as §1

BT-549 [18] = test: as above
Method in brief: as §1

CAL-120 [19] = test: as above
Method in brief: as §1

CAL-148 [20] = test: as above
Method in brief: as §1

CAL-51 [21] = test: as above
Method in brief: as §1

CAL-85-1 [22] = test: as above
Method in brief: as §1

DU-4475 [23] = test: as above
Method in brief: as §1

HCC1143 [24] = test: as above
Method in brief: as §1

HCC1599 [25] = test: as above
Method in brief: as §1

HCC1937 [26] = test: as above
Method in brief: as §1

HDQ-P1 [27] = test: as above
Method in brief: as §1

Hs578T [28] = test: as above
Method in brief: as §1

MCF-10A [29] = test: as above
Method in brief: as §1

MDA-MB-231 [30] = test: as above
Method in brief: as §1

MDA-MB-436 [31] = test: as above
Method in brief: as §1

MDA-MB-453 [32] = test: as above
Method in brief: as §1

MDA-MB-468 [33] = test: as above
Method in brief: as §1

MFM-223 [34] = test: as above
Method in brief: as §1

SK-BR-3 = test: as above
Method in brief: as §1

HDQ-P1 [35] = test: normalised response (% of control), CellTox Green; higher = less cell death (100 = DMSO, 0 = benzethonium chloride kill control)
Method in brief: as §1

MFM-223 [36] = test: as above
Method in brief: as §1

SMILES	normalised response (BT-474 [1]) [%]	normalised response (BT-549 [2]) [%]	normalised response (CAL-120 [3]) [%]	normalised response (CAL-148 [4]) [%]	normalised response (CAL-51 [5]) [%]	normalised response (CAL-85-1 [6]) [%]	normalised response (DU-4475 [7]) [%]	normalised response (HCC1143 [8]) [%]	normalised response (HCC1599 [9]) [%]	normalised response (HCC1937 [10]) [%]	normalised response (Hs578T [11]) [%]	normalised response (MCF-10A [12]) [%]	normalised response (MDA-MB-231 [13]) [%]	normalised response (MDA-MB-436 [14]) [%]	normalised response (MDA-MB-453 [15]) [%]	normalised response (MDA-MB-468 [16]) [%]	normalised response (BT-474 [17]) [%]	normalised response (BT-549 [18]) [%]	normalised response (CAL-120 [19]) [%]	normalised response (CAL-148 [20]) [%]	normalised response (CAL-51 [21]) [%]	normalised response (CAL-85-1 [22]) [%]	normalised response (DU-4475 [23]) [%]	normalised response (HCC1143 [24]) [%]	normalised response (HCC1599 [25]) [%]	normalised response (HCC1937 [26]) [%]	normalised response (HDQ-P1 [27]) [%]	normalised response (Hs578T [28]) [%]	normalised response (MCF-10A [29]) [%]	normalised response (MDA-MB-231 [30]) [%]	normalised response (MDA-MB-436 [31]) [%]	normalised response (MDA-MB-453 [32]) [%]	normalised response (MDA-MB-468 [33]) [%]	normalised response (MFM-223 [34]) [%]	normalised response (SK-BR-3) [%]	normalised response (HDQ-P1 [35]) [%]	normalised response (MFM-223 [36]) [%]
CN(c1ccccc1CNc1nc(Nc2ccc3c(c2)CC(=O)N3)ncc1C(F)(F)F)S(C)(=O)=O (1000 nM)	101	116	99.7	96.8	15.1	99.4	97.4	71.2	97.1	111	65.3	101	83.4	104	106	150	73.2	93.5	81	91.1	53.6	87.2	84.8	87.8	107	94.5	84.5	89.1	63.5	76.4	101	128	69	92.3	79.7	–	–
Nc1nccc(-c2c(-c3ccc(F)cc3)ncn2C2CCCCC2)n1 (1000 nM)	102	109	107	98.4	86.2	104	107	120	100	91.5	–	109	84	81.5	107	67.2	98.9	101	108	97.5	97	96.7	103	101	104	97.3	106	104	103	98.7	103	96.6	68.9	105	95.4	103	–
CS(=O)(=O)CCNCc1ccc(-c2ccc3ncnc(Nc4ccc(OCc5cccc(F)c5)c(Cl)c4)c3c2)o1 [Lapatinib] (100 nM)	96	126	96.9	77.7	101	96.8	98.3	–	105	118	–	109	115	91.4	92.5	116	99.9	104	102	98.3	90.5	96.1	99.1	103	97.2	94.6	83.9	115	79.1	108	103	92.2	102	104	50.2	92.8	101
COC(=O)C[C@](O)(CCCC(C)(C)O)C(=O)O[C@@H]1C(OC)=C[C@]23CCCN2CCc2cc4c(cc2[C@H]13)OCO4 [Omacetaxine] (1000 nM)	93.7	52.6	91.4	93.1	111	4.24	97.7	108	85.7	24.1	60.2	33.5	66.4	104	115	67.1	26.4	7.92	26.9	32	10.1	0.88	25	14.5	8.63	25.8	23.1	2	11.3	9.47	17.2	48.8	4.18	14.4	12.6	74.8	36
Cc1cc(C(C)Nc2ccccc2)c2nc(N3CCOCC3)cc(=O)n2c1 (centres undefined) [TGX-221] (1000 nM)	95.7	92.6	99.8	90.8	105	106	96.2	90.6	101	102	97.5	105	110	90.5	105	113	83.3	88.8	94.8	98.1	102	91.7	95.7	89.4	106	86.9	88	93.7	93.8	89.7	89.4	97.2	77.8	95	91.7	103	80.3
